Legend:
Carboplatin = compound: C1CC(C1)(C(=O)[O-])C(=O)[O-].N.N.[Pt+2] [Carboplatin]; conditions: max 10 µM
How it was run: (§1)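 After 24 hours at 37°C and 5% CO2 in 1536-well plates holding 7.5 μl of DMEM/F12 or RPMI with 10% FBS, cancer cell lines were dosed for 72 hours, with final DMSO typically 0.2%. Viability came from CellTiter-Glo 2.0 luminescence, scaled between the means of blank wells and DMSO wells. A non-linear mixed effects model fitted a two-parameter logistic curve to each dose response to give the single-agent IC50.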

AZD5363 = compound: C1CN(CCC1(C(=O)N[C@@H](CCO)C2=CC=C(C=C2)Cl)N)C3=NC=NC4=C3C=CN4 [AZD5363]; conditions: max 10 µM
How it was run: as §1

AZD1775 = compound: C=CCn1c(=O)c2cnc(Nc3ccc(N4CCN(C)CC4)cc3)nc2n1-c1cccc(C(C)(C)O)n1 [AZD1775]; conditions: max 3 µM
How it was run: as §1

Trametinib = compound: CC(=O)Nc1cccc(-n2c(=O)n(C3CC3)c(=O)c3c(Nc4ccc(I)cc4F)n(C)c(=O)c(C)c32)c1 [Trametinib]; conditions: max 1 µM
How it was run: as §1

Paclitaxel = compound: CC(=O)O[C@H]1C(=O)[C@@]2(C)[C@H]([C@H](OC(=O)c3ccccc3)[C@]3(O)C[C@H](OC(=O)[C@H](O)[C@@H](NC(=O)c4ccccc4)c4ccccc4)C(C)=C1C3(C)C)[C@]1(OC(C)=O)CO[C@@H]1C[C@@H]2O [Paclitaxel]; conditions: max 3 µM
How it was run: as §1

Palbociclib = compound: CC(=O)c1c(C)c2cnc(Nc3ccc(N4CCNCC4)cn3)nc2n(C2CCCC2)c1=O [Palbociclib]; conditions: max 10 µM
How it was run: as §1

AZD1390 = compound: CC(C)n1c(=O)n(C)c2cnc3cc(F)c(-c4ccc(OCCCN5CCCCC5)nc4)cc3c21 [AZD1390]; conditions: max 0.3 µM
How it was run: as §1

Venetoclax = compound: CC1(C)CCC(CN2CCN(c3ccc(C(=O)NS(=O)(=O)c4ccc(NCC5CCOCC5)c([N+](=O)[O-])c4)c(Oc4cnc5[nH]ccc5c4)c3)CC2)=C(c2ccc(Cl)cc2)C1 [Venetoclax]; conditions: max 1 µM
How it was run: as §1

Dasatinib = compound: CC1=C(C(=CC=C1)Cl)NC(=O)C2=CN=C(S2)NC3=CC(=NC(=N3)C)N4CCN(CC4)CCO [Dasatinib]; conditions: max 2 µM
How it was run: as §1

SG3199 = compound: CC1=CN2[C@@H](C1)C=NC3=CC(=C(C=C3C2=O)OC)OCCCCCOC4=C(C=C5C(=C4)N=C[C@@H]6CC(=CN6C5=O)C)OC [SG3199]; conditions: max 0.001 µM
How it was run: as §1

AZD2811 = compound: CCN(CCO)CCCOc1ccc2c(Nc3cc(CC(=O)Nc4cccc(F)c4)[nH]n3)ncnc2c1 [AZD2811]; conditions: max 1 µM
How it was run: as §1

SN-38 = compound: CCc1c2c(nc3ccc(O)cc13)-c1cc3c(c(=O)n1C2)COC(=O)[C@]3(O)CC [SN-38]; conditions: max 0.3 µM
How it was run: as §1

AZD0156 = compound: CN(C)CCCOc1ccc(-c2ccc3ncc4c(c3c2)n(C2CCOCC2)c(=O)n4C)cn1 [AZD0156]; conditions: max 3 µM
How it was run: as §1

AZD4320 = compound: CN(CC[C@H](CSC1=CC=CC=C1)NC2=C(C=C(C=C2)S(=O)(=O)NC(=O)C3=CC=C(C=C3)N4CCC(CC4)[C@H](C5=CC=CC=C5C6=CC=C(C=C6)Cl)O)S(=O)(=O)C(F)(F)F)CCO [AZD4320]; conditions: max 1 µM
How it was run: as §1

Alisertib = compound: COc1cc(Nc2ncc3c(n2)-c2ccc(Cl)cc2C(c2c(F)cccc2OC)=NC3)ccc1C(=O)O [Alisertib]; conditions: max 10 µM
How it was run: as §1

Etoposide = compound: COc1cc([C@@H]2c3cc4c(cc3[C@@H](O[C@@H]3O[C@@H]5CO[C@@H](C)O[C@H]5[C@H](O)[C@H]3O)[C@H]3COC(=O)[C@H]23)OCO4)cc(OC)c1O [Etoposide]; conditions: max 10 µM
How it was run: as §1

Gefitinib = compound: COc1cc2ncnc(Nc3ccc(F)c(Cl)c3)c2cc1OCCCN1CCOCC1 [Gefitinib]; conditions: max 10 µM
How it was run: as §1

Prexasertib = compound: COc1cccc(OCCCN)c1-c1cc(Nc2cnc(C#N)cn2)n[nH]1 [Prexasertib]; conditions: max 1 µM
How it was run: as §1

Doxorubicin = compound: COc1cccc2c1C(=O)c1c(O)c3c(c(O)c1C2=O)C[C@@](O)(C(=O)CO)C[C@@H]3O[C@H]1C[C@H](N)[C@H](O)[C@H](C)O1 [Doxorubicin]; conditions: max 1 µM
How it was run: as §1

AZD5153 = compound: COc1nnc2ccc(N3CCC(c4ccc(OCCN5CCN(C)C(=O)[C@H]5C)cc4)CC3)nn12 [AZD5153]; conditions: max 1 µM
How it was run: as §1

Lapatinib = compound: CS(=O)(=O)CCNCc1ccc(-c2ccc3ncnc(Nc4ccc(OCc5cccc(F)c5)c(Cl)c4)c3c2)o1 [Lapatinib]; conditions: max 10 µM
How it was run: as §1

AZD8186 = compound: C[C@@H](Nc1cc(F)cc(F)c1)c1cc(C(=O)N(C)C)cc2c(=O)cc(N3CCOCC3)oc12 [AZD8186]; conditions: max 10 µM
How it was run: as §1

Crizotinib = compound: C[C@@H](Oc1cc(-c2cnn(C3CCNCC3)c2)cnc1N)c1c(Cl)ccc(F)c1Cl [Crizotinib]; conditions: max 10 µM
How it was run: as §1

Savolitinib = compound: C[C@@H](c1ccc2nccn2c1)n1nnc2ncc(-c3cnn(C)c3)nc21 [Savolitinib]; conditions: max 1 µM
How it was run: as §1

AZD6738 = compound: C[C@@H]1COCCN1C2=NC(=NC(=C2)C3(CC3)[S@](=N)(=O)C)C4=C5C=CNC5=NC=C4 [AZD6738]; conditions: max 10 µM
How it was run: as §1

AZD5991 = compound: Cc1c2c(nn1C)CSCc1cc(n(C)n1)CSc1cc(c3ccccc3c1)OCCCc1c(C(=O)O)n(C)c3c-2c(Cl)ccc13 [AZD5991]; conditions: max 1 µM
How it was run: as §1

AZD7648 = compound: Cc1cc2ncnn2cc1Nc1ncc2c(n1)n(C1CCOCC1)c(=O)n2C [AZD7648]; conditions: max 10 µM
How it was run: as §1

Taselisib = compound: Cc1nc(-c2cn3c(n2)-c2ccc(-c4cnn(C(C)(C)C(N)=O)c4)cc2OCC3)n(C(C)C)n1 [Taselisib]; conditions: max 10 µM
How it was run: as §1

Selumetinib = compound: Cn1cnc2c(F)c(Nc3ccc(Br)cc3Cl)c(C(=O)NOCCO)cc21 [Selumetinib]; conditions: max 10 µM
How it was run: as §1

SRA737 = compound: N#Cc1cnc(Nc2cc(NC[C@H]3CNCCO3)c(C(F)(F)F)cn2)cn1 [SRA737]; conditions: max 10 µM
How it was run: as §1

MK-2206 = compound: NC1(c2ccc(-c3nc4ccn5c(=O)[nH]nc5c4cc3-c3ccccc3)cc2)CCC1 [MK-2206]; conditions: max 10 µM
How it was run: as §1

Gemcitabine = compound: Nc1ccn([C@@H]2O[C@H](CO)[C@@H](O)C2(F)F)c(=O)n1 [Gemcitabine]; conditions: max 0.3 µM
How it was run: as §1

[1] = compound: O=C(Nc1ccc2[nH]nc(-c3ccncc3)c2c1)[C@@H]1CCN(CC(=O)N2CCN(c3ccc(-c4ncccn4)cc3)CC2)C1; conditions: max 5 µM
How it was run: as §1

Olaparib = compound: O=C(c1cc(Cc2n[nH]c(=O)c3ccccc23)ccc1F)N1CCN(C(=O)C2CC2)CC1 [Olaparib]; conditions: max 10 µM
How it was run: as §1

5-Fluorouracil = compound: O=c1[nH]cc(F)c(=O)[nH]1 [5-Fluorouracil]; conditions: max 20 µM
How it was run: as §1

| Cell Line | IC50, cell viability 72 h (Carboplatin) [nM] | IC50, cell viability 72 h (AZD5363) [nM] | IC50, cell viability 72 h (AZD1775) [nM] | IC50, cell viability 72 h (Trametinib) [nM] | IC50, cell viability 72 h (Paclitaxel) [nM] | IC50, cell viability 72 h (Palbociclib) [nM] | IC50, cell viability 72 h (AZD1390) [nM] | IC50, cell viability 72 h (Venetoclax) [nM] | IC50, cell viability 72 h (Dasatinib) [nM] | IC50, cell viability 72 h (SG3199) [nM] | IC50, cell viability 72 h (AZD2811) [nM] | IC50, cell viability 72 h (SN-38) [nM] | IC50, cell viability 72 h (AZD0156) [nM] | IC50, cell viability 72 h (AZD4320) [nM] | IC50, cell viability 72 h (Alisertib) [nM] | IC50, cell viability 72 h (Etoposide) [nM] | IC50, cell viability 72 h (Gefitinib) [nM] | IC50, cell viability 72 h (Prexasertib) [nM] | IC50, cell viability 72 h (Doxorubicin) [nM] | IC50, cell viability 72 h (AZD5153) [nM] | IC50, cell viability 72 h (Lapatinib) [nM] | IC50, cell viability 72 h (AZD8186) [nM] | IC50, cell viability 72 h (Crizotinib) [nM] | IC50, cell viability 72 h (Savolitinib) [nM] | IC50, cell viability 72 h (AZD6738) [nM] | IC50, cell viability 72 h (AZD5991) [nM] | IC50, cell viability 72 h (AZD7648) [nM] | IC50, cell viability 72 h (Taselisib) [nM] | IC50, cell viability 72 h (Selumetinib) [nM] | IC50, cell viability 72 h (SRA737) [nM] | IC50, cell viability 72 h (MK-2206) [nM] | IC50, cell viability 72 h (Gemcitabine) [nM] | IC50, cell viability 72 h [1] [nM] | IC50, cell viability 72 h (Olaparib) [nM] | IC50, cell viability 72 h (5-Fluorouracil) [nM] |
| --- | --- | --- | --- | --- | --- | --- | --- | --- | --- | --- | --- | --- | --- | --- | --- | --- | --- | --- | --- | --- | --- | --- | --- | --- | --- | --- | --- | --- | --- | --- | --- | --- | --- | --- | --- |
| EW-3 (Ewing's Sarcoma) | > 10000 | > 10000 | 2300 | > 1000 | 17.5 | > 10000 | > 300 | 401 | > 2000 | > 1 | > 1000 | 2.07 | > 3000 | 27.6 | 8570 | 1100 | > 10000 | 183 | 86.7 | 496 | > 10000 | > 10000 | 9570 | > 1000 | 2030 | 470 | > 10000 | > 10000 | > 10000 | > 10000 | > 10000 | 8.11 | > 5000 | > 10000 | > 20000 |
| GI-1 (Glioblastoma) | > 10000 | 7330 | 755 | > 1000 | 10.2 | > 10000 | > 300 | > 1000 | > 2000 | > 1 | > 1000 | 9.55 | > 3000 | > 1000 | > 10000 | 4030 | > 10000 | 17.8 | 670 | 303 | > 10000 | 9590 | 5430 | > 1000 | 2100 | 737 | > 10000 | 3040 | > 10000 | 3870 | > 10000 | 53.3 | > 5000 | > 10000 | > 20000 |
| H-EMC-SS (Chondrosarcoma) | > 10000 | > 10000 | > 3000 | 293 | > 3000 | > 10000 | > 300 | > 1000 | > 2000 | > 1 | > 1000 | 153 | > 3000 | > 1000 | 8380 | > 10000 | > 10000 | > 1000 | 428 | > 1000 | > 10000 | > 10000 | > 10000 | > 1000 | > 10000 | > 1000 | > 10000 | 3360 | > 10000 | > 10000 | > 10000 | > 300 | > 5000 | > 10000 | > 20000 |
| HSC-2 (Oral Cavity Carcinoma) | > 10000 | > 10000 | 2130 | > 1000 | 3.31 | > 10000 | > 300 | > 1000 | 176 | > 1 | > 1000 | 5.35 | > 3000 | > 1000 | 2400 | 4420 | 3960 | 124 | 367 | 238 | 4010 | > 10000 | > 10000 | > 1000 | 8500 | 439 | > 10000 | 171 | > 10000 | > 10000 | > 10000 | 18.2 | > 5000 | > 10000 | > 20000 |
| JHH-7 (Hepatocellular Carcinoma) | > 10000 | > 10000 | 2610 | > 1000 | 660 | > 10000 | > 300 | > 1000 | > 2000 | > 1 | > 1000 | > 300 | > 3000 | > 1000 | > 10000 | > 10000 | > 10000 | > 1000 | > 1000 | > 1000 | > 10000 | > 10000 | > 10000 | > 1000 | > 10000 | > 1000 | > 10000 | > 10000 | > 10000 | > 10000 | > 10000 | > 300 | > 5000 | > 10000 | > 20000 |

From the supplement of paper PMC11061612
